# Results reported in US12060347B2 (BRISTOL-MYERS SQUIBB COMPANY, priority 2016, dated 2024).
# Biological target: T1, human PAR4 (Homo sapiens, UniProt Q96RI0)
# T1 construct: expressed in transfected cells; host or cells: HEK293 PAR4 Clone 1.2A (BMS Arctic ID 383940)
# T1 sequence (Q96RI0 18-385): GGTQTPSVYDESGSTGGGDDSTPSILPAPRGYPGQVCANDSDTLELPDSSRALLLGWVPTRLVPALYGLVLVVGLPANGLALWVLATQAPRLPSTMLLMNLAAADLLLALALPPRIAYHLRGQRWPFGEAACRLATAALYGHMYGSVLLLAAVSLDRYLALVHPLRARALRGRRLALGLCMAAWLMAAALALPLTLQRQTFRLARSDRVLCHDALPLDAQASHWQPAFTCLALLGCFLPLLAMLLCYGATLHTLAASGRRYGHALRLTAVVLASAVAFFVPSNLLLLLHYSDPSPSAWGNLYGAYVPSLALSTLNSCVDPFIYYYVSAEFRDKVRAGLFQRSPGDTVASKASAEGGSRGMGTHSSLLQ
# Experiment: PAR4 FLIPR assay: antagonism of agonist-peptide-induced calcium mobilization in PAR4-expressing HEK293 cells
# Type: cell-based
# Settings: H-Ala-Phe(4-F)-[…]NH2-induced intracellular calcium mobilization, 11-point curves
row,SMILES,IC50
1,"COCc1cnc2c(-c3nc4c(C)c(C)c(OC(C)C(C)O)cc4s3)cc(C)cc2n1 (mixture of isomers) [Example 323, 3-((2-(2-(methoxymethyl)-7-methylquinoxalin-5-yl)-4,5-dimethylbenzo[d]thiazol-6-yl)oxy)butan-2-ol]",15 nM
2,"COCc1cnc2c(-c3nc4c(C)c(C)c(OC(C)CO)cc4s3)cc(C)cc2n1 (racemic) [Example 321, 2-((2-(2-(methoxymethyl)-7-methylquinoxalin-5-yl)-4,5-dimethylbenzo[d]thiazol-6-yl)oxy)propan-1-ol]",3.1 nM
3,"COCc1cnc2c(-c3nc4c(C)c(C)c(OCC(C)O)cc4s3)cc(C)cc2n1 (racemic) [Example 322, 1-((2-(2-(methoxymethyl)-7-methylquinoxalin-5-yl)-4,5-dimethylbenzo[d]thiazol-6-yl)oxy)propan-2-ol]",5.1 nM
4,"COCc1cnc2c(-c3nc4c(C(O)C(C)(C)C)c(C)c(OC)cc4s3)cc(C)cc2n1 (racemic) [Example 328, 1-(6-methoxy-2-(2-(methoxymethyl)-7-methylquinoxalin-5-yl)-5-methylbenzo[d]thiazol-4-yl)-2,2-dimethylpropan-1-ol]",1.4 nM
5,"COc1ccc(NC(=O)OCC(C)Oc2cc3sc(-c4cc(C)cc5nc(OC)cnc45)nc3c(Cl)c2F)cn1 (racemic) [Example 381, 2-((4-chloro-5-fluoro-2-(2-methoxy-7-methylquinoxalin-5-yl)benzo[d]thiazol-6-yl)oxy)propyl (6-methoxypyridin-3-yl)carbamate]",1.4 nM
6,"COCC(COc1cc2sc(-c3cc(C)cc4nc(OC)cnc34)nc2cc1F)OC(=O)Nc1cccnc1 (racemic) [Example 516, 1-((5-fluoro-2-(2-methoxy-7-methylquinoxalin-5-yl)benzo[d]thiazol-6-yl)oxy)-3-methoxypropan-2-yl pyridin-3-ylcarbamate (rac)]",2 nM
7,"COc1cnc2c(-c3nc4cc(F)c(OCC(COCC(C)C)OC(=O)Nc5cnc(C)nc5)cc4s3)cc(C)cc2n1 (racemic) [Example 525, 1-((5-fluoro-2-(2-methoxy-7-methylquinoxalin-5-yl)benzo[d]thiazol-6-yl)oxy)-3-isobutoxypropan-2-yl (2-methylpyrimidin-5-yl)carbamate (rac)]",2.3 nM
8,"COCc1cnc2c(-c3nc4c(C(O)c5ccccc5)cc(OC)cc4s3)cc(C)cc2n1 (single isomer, unassigned) [Example 163, (6-methoxy-2-(2-(methoxymethyl)-7-methylquinoxalin-5-yl)benzo[d]thiazol-4-yl)(phenyl)methanol]",0.5 nM
9,"COCc1cnc2c(-c3nc4c(C(O)C(C)(C)C)cc(OC)cc4s3)cc(C)cc2n1 (single isomer, unassigned) [Example 164, 1-(6-methoxy-2-(2-(methoxymethyl)-7-methylquinoxalin-5-yl)benzo[d]thiazol-4-yl)-2,2-dimethylpropan-1-ol]",0.5 nM
10,"[2H]C(O)(c1cc(OC)cc2sc(-c3cc(C)cc4nc(COC)cnc34)nc12)C(C)(C)C (single isomer, unassigned) [Example 169, 1-(6-methoxy-2-(2-(methoxymethyl)-7-methylquinoxalin-5-yl)benzo[d]thiazol-4-yl)-2,2-dimethylpropan-1-ol-1-d1]",0.4 nM
11,"[2H]C([2H])([2H])OC([2H])([2H])c1cnc2c(-c3nc4c(C(O)C(C)(C)C)cc(OC)cc4s3)cc(C)cc2n1 (single isomer, unassigned) [Example 170, 1-(6-methoxy-2-(2-(methoxymethyl)-7-methylquinoxalin-5-yl)benzo[d]thiazol-4-yl)-2,2-dimethylpropan-1-ol-d5]",0.3 nM
12,"COc1ccc(NC(=O)OC[C@H](C)Oc2cc3sc(-c4cc(C)cc5nc(OC)cnc45)nc3c(Cl)c2F)cn1 (single isomer, unassigned) [Example 382]",1.3 nM
13,"COc1cc(C(O)C(F)(F)F)c2nc(-c3cc(C)cc4nc(OC)cnc34)sc2c1 (single isomer, unassigned) [Example 633, 2,2,2-trifluoro-1-(6-methoxy-2-(2-methoxy-7-methylquinoxalin-5-yl)benzo[d]thiazol-4-yl)ethanol]",2.6 nM
14,"COc1cc(C(O)C2(C(F)(F)F)CCC2)c2nc(-c3cc(C)cc4nc(OC)cnc34)sc2c1 (single isomer, unassigned) [Example 664]",0.9 nM
15,"COc1cnc2c(-c3nc4cc(F)c(O[C@@H](C)[C@@H](C)OC(=O)Nc5ccc(C(C)O)nc5)nc4s3)cc(C)cc2n1 (single isomer, unassigned) [Example 766]",2.9 nM
16,"COc1cnc2c(-c3nc4cc(F)c(O[C@@H](C)[C@@H](C)OC(=O)Nc5ccc(C(C)O)nc5)nc4s3)cc(C)cc2n1 (single isomer, unassigned) [Example 767]",3.4 nM
17,"COc1cnc2c(-c3nc4cc(F)c(O[C@@H](C)[C@@H](C)OC(=O)Nc5ccc(C(N)=O)nc5)cc4s3)cc(C)cc2n1 (stereo in doubt) [Example 391, (2R,3S)-3-((5-fluoro-2-(2-methoxy-7-methylquinoxalin-5-yl)benzo[d]thiazol-6-yl)oxy)butan-2-yl (6-carbamoylpyridin-3-yl)carbamate]",2 nM

row,SMILES,IC50
1,"COc1cnc2c(-c3nc4cc(F)c(O[C@@H](C)[C@@H](C)OC(=O)Nc5ccc(C(=O)NCCO)nc5)cc4s3)cc(C)cc2n1 (stereo in doubt) [Example 392, (2R,3S)-3-((5-fluoro-2-(2-methoxy-7-methylquinoxalin-5-yl)benzo[d]thiazol-6-yl)oxy)butan-2-yl (6-((2-hydroxyethyl)carbamoyl)pyridin-3-yl)carbamate]",3.1 nM
2,"CNC(=O)c1cnc2c(-c3nc4cc(F)c(O[C@@H](C)[C@@H](C)OC(=O)Nc5cnc(C)nc5)cc4s3)cc(C)cc2n1 (stereo in doubt) [Example 393, (2R,3S)-3-((5-fluoro-2-(7-methyl-2-(methylcarbamoyl)quinoxalin-5-yl)benzo[d]thiazol-6-yl)oxy)butan-2-yl (2-methylpyrimidin-5-yl)carbamate]",30 nM
3,"Cc1cc(-c2cc3ccccc3o2)c2ncc(OC(F)F)nc2c1 [Example 1, 5-(benzofuran-2-yl)-2-(difluoromethoxy)-7-methylquinoxaline]",29 nM
4,"COc1ccc2oc(-c3cc(C)cc4nc(OC(F)F)cnc34)cc2c1 [Example 2, 2-(difluoromethoxy)-5-(5-methoxybenzofuran-2-yl)-7-methylquinoxaline]",11 nM
5,"Cc1cc(-c2nc3ccccc3o2)c2ncc(OC(F)F)nc2c1 [Example 3, 2-(2-(difluoromethoxy)-7-methylquinoxalin-5-yl)benzo[d]oxazole]",240 nM
6,"Cc1cc(-c2nc3ccccc3s2)c2ncc(OC(F)F)nc2c1 [Example 4, 2-(2-(difluoromethoxy)-7-methylquinoxalin-5-yl)benzo[d]thiazole]",17 nM
7,"Cc1cc(-c2cc3ccccc3[nH]2)c2ncc(OC(F)F)nc2c1 [Example 5, 2-(difluoromethoxy)-5-(1H-indol-2-yl)-7-methylquinoxaline]",880 nM
8,"COc1ccc2oc(-c3cc(C)cc4nc(OC(F)F)cnc34)cc2c1OC [Example 6, 2-(difluoromethoxy)-5-(4,5-dimethoxybenzofuran-2-yl)-7-methylquinoxaline]",130 nM
9,"Cc1cc(-c2nc3ccc(OCc4ccccc4)cc3s2)c2ncc(OC(F)F)nc2c1 [Example 7, 6-(benzyloxy)-2-(2-(difluoromethoxy)-7-methylquinoxalin-5-yl)benzo[d]thiazole]",800 nM
10,"Cc1cc(-c2nc3c(Cl)cccc3s2)c2ncc(OC(F)F)nc2c1 [Example 8, 4-chloro-2-(2-(difluoromethoxy)-7-methylquinoxalin-5-yl)benzo[d]thiazole]",8.1 nM
11,"Cc1cc(-c2nc3ncccc3s2)c2ncc(OC(F)F)nc2c1 [Example 9, 2-(2-(difluoromethoxy)-7-methylquinoxalin-5-yl)thiazolo[4,5-b]pyridine]",220 nM
12,"COc1cc(C)c2nc(-c3cc(C)cc4nc(OC(F)F)cnc34)sc2c1 [Example 10, 2-(2-(difluoromethoxy)-7-methylquinoxalin-5-yl)-6-methoxy-4-methylbenzo[d]thiazole]",2.2 nM
13,"Cc1cc(-c2nc3c(s2)CN(C(=O)OC(C)(C)C)CC3)c2ncc(OC(F)F)nc2c1 [Example 11, tert-butyl 2-(2-(difluoromethoxy)-7-methylquinoxalin-5-yl)-6,7-dihydrothiazolo[5,4-c]pyridine-5(4H)-carboxylate]",1700 nM
14,"COc1ccc(C)c2nc(-c3cc(C)cc4nc(OC(F)F)cnc34)sc12 [Example 12, 2-(2-(difluoromethoxy)-7-methylquinoxalin-5-yl)-7-methoxy-4-methylbenzo[d]thiazole]",2 nM
15,"COc1c(F)cc(F)c2nc(-c3cc(C)cc4nc(OC(F)F)cnc34)sc12 [Example 13, 2-(2-(difluoromethoxy)-7-methylquinoxalin-5-yl)-4,6-difluoro-7-methoxybenzo[d]thiazole]",3.5 nM
16,"Cc1cc(-c2nc3cccc(NC(=O)OC(C)(C)C)c3s2)c2ncc(OC(F)F)nc2c1 [Example 14, tert-butyl (2-(2-(difluoromethoxy)-7-methylquinoxalin-5-yl)benzo[d]thiazol-7-yl) carbamate]",6.8 nM
17,"Cc1cc(-c2nc3cccc(OCc4cscn4)c3s2)c2ncc(OC(F)F)nc2c1 [Example 15, 2-(2-(difluoromethoxy)-7-methylquinoxalin-5-yl)-7-(thiazol-4-ylmethoxy)benzo[d]thiazole]",38 nM
